Source: ChEMBL document CHEMBL1157539, “Thousands of chemical starting points for antimalarial lead identification” (Nature, 2010)

system: Plasmodium falciparum; test: GSK_TCMDC: Inhibition of Plasmodium falciparum 3D7 in whole erythrocytes, using parasite LDH activity as an index of growth.; type: functional, organism-based; conditions: Plasmodium falciparum, 3D7

SMILES | XC50
CCN1C(=O)N(CCC(C)C)C2(CCN(Cc3ccc(OC)cc3O)CC2)C1=O | 868 nM
CC1CCC(C[C@@H](C(=O)N[C@@H](CCC(=O)N2CCCCC2)C(=O)Nc2nccs2)[C@H](C(C)C)N(O)C=O)CC1 (some centres undefined) | 615 nM
CCCCNC(=O)[C@H](Cc1ccccc1)NC(=O)c1ccc(O)c(-c2ccc(Cl)c(Cl)c2)c1 | 527 nM
NC1CCN(CCNCc2cccc(-c3ccc(-c4nc5cc(C(F)(F)F)ccc5[nH]4)cc3)c2)C1 (centres undefined) | 893 nM
Cc1cc(N[C@@H](Cc2ccccc2)C(=O)NCc2cccc(F)c2)nc(NCCc2cccs2)n1 | 622 nM
O=C(Nc1ccc(Cl)cc1)Nc1ccc(-c2cccc(-c3nc4cc(F)ccc4[nH]3)c2)cc1 | 292 nM
S=c1nc(-c2ccccc2)n2ccsc2n1 | 176 nM
CS(=O)(=O)c1ccc(-c2nc(NCC3CCCCC3)cc(C(F)(F)F)n2)cc1 | 667 nM
COc1cccc(C2C(C(=O)Nc3ccccc3)=C(C)N=c3sc(=Cc4ccc(O)cc4)c(=O)n32)c1 (centres undefined) | 579 nM
COc1nc(NCC(C)C)nc(Oc2ccc(=O)n(Cc3ccccc3)n2)n1 | 631 nM
CC(C(=O)OCCOCn1cnc2c(=O)[nH]c(N)nc21)N(C)C(=O)OC(C)(C)C (centres undefined) | 1000 nM
Oc1cccc(-c2nc(-c3ccccc3)c(-c3ccc(Oc4ccc(-c5[nH]c(-c6cccc(O)c6)nc5-c5ccccc5)cc4)cc3)[nH]2)c1 | 855 nM
N=C(N)NC(=O)Nc1cc(F)c(Cl)c(Br)c1 | 993 nM
Cc1ccoc1C(=O)Nc1ccc(-c2cccc(-c3nc4cccc(C)c4[nH]3)c2)cc1 | 726 nM
N=C(N)Nc1ccc(Cc2ccc(NC(=N)N)cc2)cc1 | 255 nM
CS(=O)(=O)c1cccc(-c2ccc3oc(C(N)=O)c(NC(=O)c4cccs4)c3c2)c1 | 589 nM
COc1cccc(C2(NC[C@@H](O)[C@H](Cc3ccccc3)NC(=O)c3ccccc3)CCCCC2)c1 | 729 nM
COc1ccc(NC(=O)c2ccc(-c3nc(-c4cccc(C(F)(F)F)c4)cs3)cc2)cc1N1CCN(C)CC1 | 818 nM
CC(C)c1ccc(C2CCN(CCCCNC(=O)c3ccc(NC(=O)c4ccc(C(F)(F)F)cc4)cc3)CC2)c(O)c1 | 579 nM
O=C(NC(=O)c1ccccc1O)c1ccccc1O | 704 nM
C=CCOC(=O)N1CCC(CNCc2cccc(-c3cccc(-c4nc5cc(F)ccc5[nH]4)c3)c2)C1 (centres undefined) | 207 nM
Cc1cc(C)nc(-n2[nH]c(C)c(Cc3ccc(C(C)(C)C)cc3)c2=O)n1 | 1010 nM
O=C(NC1CCN(Cc2ccccc2)CC1)c1ccc(-c2nc3cc(Cl)c(F)cc3[nH]2)cc1 | 245 nM
O=C(CSc1nc2ccccc2c(=O)n1C1CC1)Nc1cc(C(F)(F)F)ccc1Cl | 108 nM
CC(=O)Nc1ccc(CN2CCC(CNC(=O)c3cc(-c4cccc(C(F)(F)F)c4)cs3)C2)cc1 (centres undefined) | 1100 nM

SMILES | XC50
CCCC(C)Nc1nc(C)cc(N[C@@H](Cc2ccccc2)C(=O)NCc2cccc(F)c2)n1 (some centres undefined) | 882 nM
CC1CCCCN1CCCNc1nc(NCc2ccccc2)c2ccccc2n1 (centres undefined) | 953 nM
Cc1ccc(CNC(=O)[C@H](CC(C)C)Nc2cc(C)nc(NCc3ccccc3C)n2)cc1 | 952 nM
COc1cc2c(=O)c(Cc3ccc(Cl)cc3)c(C)[nH]c2cc1F | 1160 nM
O=C(/C=C/c1ccc2ccccc2c1)NC1CCC(CN2CCC(c3c[nH]c4ccccc34)CC2)CC1 (centres undefined) | 727 nM
CCCC(C)Nc1nc(C)cc(N[C@@H](CC(C)C)C(=O)NCCc2ccccc2)n1 (some centres undefined) | 1360 nM
N#Cc1ccc(N/C(=N\c2ccc(-c3ccccc3)cc2)NCCc2c[nH]c3ccccc23)c(O)c1 | 336 nM
Cc1cc(N(C)C)nc(Nc2ccc(NC(=O)COc3ccccc3)cc2)n1 | 1760 nM
COc1cccc(CNC[C@@H](O)[C@H](Cc2ccccc2)NC(=O)c2cc(C3CCCC3)cc(N3CCCCS3(=O)=O)c2)c1 | 599 nM
NC1=NC(c2ccccc2)(c2ccccc2)C(=O)N1Cc1ccc(-c2ccncc2)cc1 | 772 nM
CC(=O)Nc1cccc(C(=O)Nc2cccc(-c3ccc(-c4nc5cc(F)ccc5[nH]4)s3)c2)c1 | 896 nM
COc1ccc(-c2ccc(CNCc3ccc(F)cc3)cc2)cc1S(=O)(=O)NCCN1CCCC1 | 731 nM
CCC(C)CC(=O)Nc1ccc(OC)c(S(=O)(=O)N[C@@H]2CCN(C#N)C2)c1 (some centres undefined) | 1490 nM
CCN(CC)CCOc1ccc(C(O)(C#CC(O)(c2ccccc2)c2ccc(OCCN(CC)CC)cc2)c2ccccc2)cc1 (centres undefined) | 1310 nM
CCCc1cc(O)c2c3c(c(=O)oc2c1)CN(C)CC3 | 873 nM
O=C(Nc1cccc(C2=NCCN2)c1)Nc1cccc(C2=NCCN2)c1 [IMIDOCARB] | 419 nM
Cc1nc2ccc(NC(=O)Nc3ccnc4ccc(C(F)(F)F)cc34)cc2o1 | 912 nM
COc1ccc(CNCc2ccc(-c3ccc(CNCCc4ccccc4)cn3)cc2)cn1 | 1010 nM
Cc1ccc2c(=NN=CC=Cc3ccccc3)cc(C)[nH]c2c1 | 1120 nM
Cc1cccc(-c2nc(Nc3ccncc3)c3cc(N(C)C)ccc3n2)n1 | 710 nM
Cc1cc2c(cc1C(F)(F)F)N(C(=O)Nc1ccc(C(=O)NC3CCN(Cc4ccccc4)C3)cc1)CC2 (centres undefined) | 776 nM
COc1ccc(C2CCN(C#N)C2)cc1OC1CCCC1 (centres undefined) | 228 nM
CCC(C)NS(=O)(=O)c1ccc2nc(Nc3ccc(C)cc3)n([C@H](C)C(C)(C)C)c2c1 (some centres undefined) | 391 nM
CCOc1ccc(-c2nonc2NC(=O)c2ccccc2OC)cc1OCC | 241 nM
Fc1ccc2[nH]c3c(NCCCN4CCOCC4)ncnc3c2c1 | 714 nM

SMILES | XC50
FC(F)(F)CNc1nc(Nc2ccc3ncccc3c2)nc2[nH]ccc12 | 1240 nM
Cc1ccc(CNC(=O)c2cnc(N3CCN(c4ccncc4)CC3)c(Cl)c2)cc1 | 1290 nM
CN(C)c1ccc(-c2cscc2C(=O)NC2CCCN(Cc3cccnc3)C2)cc1 (centres undefined) | 859 nM
CN1CCN(CCCSc2ccc3c(c2)ncn3-c2cc(OCc3ccccc3C(F)(F)F)c(C(N)=O)s2)CC1 | 439 nM
CO/C=C(/C(=O)OC)c1ccccc1Oc1cc(Oc2ccccc2C#N)ncn1 [AZOXYSTROBIN] | 40.5 nM
O=c1[nH]ccc2nc(N[C@@H]3CCNC3)nc(Nc3ccc4c(c3)S(=O)(=O)CC4)c12 | 377 nM
Cc1cccc(CNc2nc(C)cc(N[C@@H](Cc3ccccc3)C(=O)NCCOc3ccccc3)n2)c1 | 914 nM
O=C(N[C@H]1CCN(Cc2ccc(OCCCN3CCCCC3)cc2)C1)c1ccc2ccccc2c1 | 764 nM
CN(C)CCNCc1cccc(-c2ccc3c(Nc4ccc(F)cc4Cl)ccnc3c2)c1 | 809 nM
O=C(Nc1cccc(-c2nn3ccccc3c2-c2ccnc(Nc3cccc(F)c3)n2)c1)c1c(F)ccc(F)c1Cl | 1140 nM
CS(=O)(=O)CCNc1nccc(N2CCc3ncnc(Nc4ccc(OCc5cccc(F)c5)c(Cl)c4)c3C2)n1 | 132 nM
c1cncc(CN2CCN(Cc3ccc(-c4ccc(-c5nc6ccccc6[nH]5)s4)cc3)CC2)c1 | 938 nM
Fc1cccc(COc2ccc(Nc3ncnc4sc(C#Cc5ncc[nH]5)cc34)cc2Cl)c1 | 134 nM
O=C(Nc1ccc2c(c1)CCNCC2)c1ccc(-c2ccc(Cl)cc2)cc1 | 814 nM
CC(C)Sc1nc2c(c(=O)n1Cc1ccco1)C1(CCCC1)Cc1ccccc1-2 | 1630 nM
Cc1c(CNCCCNc2cc(=O)c3ccccc3[nH]2)sc(/C=N/O)c1Br | 1080 nM
COc1cccc(Nc2c(C(N)=O)cnc3ccc(-c4ccccc4)cc23)c1 | 771 nM
O=C(NCc1ccc(Cl)c(Cl)c1)c1ccc(-c2nc3cc(F)c(F)cc3[nH]2)cc1 | 1050 nM
Cc1onc(-c2ccccc2Cl)c1C(=O)Nc1cc(Cl)c(Cl)cc1Cl | 1180 nM
Cc1ccc(OCCCCON2C(=N)N=C(N)NC2(C)C)cc1C | 3.2 nM
COc1ccc(C2N=C(N)N=C(N)N2OCc2ccccc2)cc1OC (centres undefined) | 133 nM
CC(=O)C1(c2ccccc2)CCN(CCC2(c3ccc(Cl)c(Cl)c3)CN(C(=O)C3CCCC3)CCO2)CC1 (centres undefined) | 798 nM
CC(C)NCc1cccc(-c2cccc(NC(=O)c3cccc(Cl)c3)c2)c1 | 592 nM
COc1ccc2nccc([C@@H](O)CN3CCC(NC(=O)/C=C/c4cccc(NC(C)=O)c4)CC3)c2c1 | 963 nM
CCn1c(C)cc(C=C2SC(=Nc3ccccc3)NC2=O)c1C | 680 nM

SMILES | XC50
CN(c1cc(NC(=O)c2cccs2)ccn1)C1CCN(Cc2ccccc2)CC1 | 1020 nM
N=C(N)NN=CC(=O)Nc1ccc(Cl)c(Cl)c1 | 737 nM
Cc1cc(N2CCOCC2)nc(Nc2ccc(NC(=O)c3cccc4ccccc34)cc2)n1 | 1300 nM
COc1c(C=NNc2nc(=Nc3ccccc3)[nH]c(=Nc3ccccc3)[nH]2)ccc(Br)c1O | 720 nM
CC1(C)N=C(N)N=C(N)N1OCc1cccc2c1ccc1ccccc12 | 3.2 nM
CCNc1cc(C(=O)NC(Cc2ccccc2)C(O)CNC(C)(C)CCCC(C)C)c(F)c(N2CCCS2(=O)=O)c1 (centres undefined) | 197 nM
O=S(=O)(NCCN1CCCC1)c1cccc(-c2ccc(CNCc3ccccc3)cc2)c1 | 1000 nM
COc1cc(Nc2ccnc3ccc(C(C)(C)C)cc23)cc(OC)c1OC | 610 nM
CN1CCCN(Cc2cccc(-c3cccc(NC(=O)c4ccc(C#N)cc4)c3)c2)CC1 | 1140 nM
OC1(c2ccc(Cl)c(C(F)(F)F)c2)CCN(CCOC2c3ccccc3CSc3ccc(Cl)cc32)CC1 (centres undefined) | 799 nM
COc1ccc2nccc([C@@H](O)CN3CCC(NC(=O)C(c4cccs4)N4CCN(c5ccc(F)cc5)CC4)CC3)c2c1 (some centres undefined) | 817 nM
COc1ccc(-n2cc(CNCCCn3ccnc3)c(-c3cccc(F)c3)n2)cc1 | 1060 nM
CS(=O)(=O)c1ccc(-c2cncc(Cl)n2)cc1 | 770 nM
CSc1ccc(CN2CCC(NC(=O)c3ccc(-c4cccc(Cl)c4)s3)CC2)cc1 | 1290 nM
NCc1cccc(-c2ccc3ccnc(N)c3c2)c1 | 168 nM
CCOc1ccc2[nH]c(C)cc(=NN=Cc3ccncc3)c2c1 | 991 nM
CN(c1ccc(C(=O)N[C@@H](CCC(=O)O)C(=O)O)cc1)S(=O)(=O)c1ccc2nc(N)[nH]c(=O)c2c1 | 149 nM
CCCc1cc(NCC)nc(Nc2ccc(F)cc2)n1 | 1030 nM
COc1ccc2nccc([C@@H](O)CN3CCC(NCCOc4c(C)cccc4F)CC3)c2c1 | 347 nM
CC(Cc1ccc(-c2nc3ccccc3[nH]2)cc1)NCC(O)c1cccc(C(F)(F)F)c1 (centres undefined) | 352 nM
Nc1nc(N)c2cc(C#Cc3ccc(-c4ccccc4)cc3)ccc2n1 | 810 nM
COc1ccc2nccc([C@@H](O)CN3CCC(NCc4cc5ccccc5o4)CC3)c2c1 | 658 nM
CC1(C)N=C(N)N=C(N)N1c1ccc(I)cc1 | 44.4 nM
Clc1cc(Nc2ncnc3sc(C#C[C@H]4CCCN4)cc23)ccc1OCc1cccnc1Cl | 569 nM
